Experimental data reported in ChEMBL document CHEMBL5230131, “Modern trends in diuretics development” (Eur J Med Chem, 2020).

Tests used:
Pendrin [1] = biological target: T1, Pendrin (Mus musculus, UniProt Q9R155); assay: Inhibition of mouse Pendrin stably expressed in FRT cells with YFP assessed as inhibition of pendrin mediated Cl-/SCN- exchange by fluorescence assay; format: cell-based
T1 sequence (Q9R155 whole entry): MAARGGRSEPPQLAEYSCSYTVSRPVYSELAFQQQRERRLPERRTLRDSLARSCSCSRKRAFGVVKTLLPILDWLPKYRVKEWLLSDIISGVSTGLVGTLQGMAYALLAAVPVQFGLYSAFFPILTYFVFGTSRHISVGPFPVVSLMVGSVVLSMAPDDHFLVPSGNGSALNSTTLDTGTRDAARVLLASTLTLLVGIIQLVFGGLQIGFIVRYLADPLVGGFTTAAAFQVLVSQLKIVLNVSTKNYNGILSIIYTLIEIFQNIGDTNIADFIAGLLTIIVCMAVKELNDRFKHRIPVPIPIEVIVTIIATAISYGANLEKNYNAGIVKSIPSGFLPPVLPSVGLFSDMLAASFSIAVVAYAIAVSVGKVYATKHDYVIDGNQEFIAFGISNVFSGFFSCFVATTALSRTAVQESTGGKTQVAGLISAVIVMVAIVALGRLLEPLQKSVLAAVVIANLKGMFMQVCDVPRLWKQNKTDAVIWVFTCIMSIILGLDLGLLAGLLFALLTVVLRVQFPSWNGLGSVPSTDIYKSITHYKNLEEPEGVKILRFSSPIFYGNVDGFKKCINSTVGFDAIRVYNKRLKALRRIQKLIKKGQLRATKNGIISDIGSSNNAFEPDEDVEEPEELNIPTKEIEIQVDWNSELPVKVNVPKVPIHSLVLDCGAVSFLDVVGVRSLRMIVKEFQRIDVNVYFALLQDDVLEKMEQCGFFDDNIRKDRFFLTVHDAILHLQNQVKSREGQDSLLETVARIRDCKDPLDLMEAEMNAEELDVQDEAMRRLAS

Pendrin [2] = biological target: T1, Pendrin; assay: Inhibition of mouse Pendrin stably expressed in FRT cells with YFP assessed as inhibition of pendrin mediated Cl-/NO3- exchange by fluorescence assay; format: cell-based
Pendrin [3] = biological target: T1, Pendrin; assay: Inhibition of mouse Pendrin stably expressed in FRT cells with YFP assessed as inhibition of pendrin mediated Cl-/HCO3- exchange by fluorescence assay; format: cell-based
Mus musculus [4] = assay: Diuretic activity in CD-1 mouse assessed as increase in urine volume at 10 to 50 mg/kg,ip with short term administration of furosemide measured after 3 hrs; format: functional; details: dose 10-50 mg/kg
Mus musculus [5] = assay: Diuretic activity in C57BL/6 mouse assessed as increase in urine volume at 10 to 50 mg/kg,ip with short term administration of furosemide measured after 3 hrs; format: functional; details: dose 10-50 mg/kg
Mus musculus [6] = assay: Diuretic activity in CD-1 mouse assessed as increase in urine volume at 20 mg/kg,ip with long term administration of furosemide measured after 3 hrs; format: functional
Mus musculus [7] = assay: Diuretic activity in C57BL/6 mouse assessed as increase in urine volume at 20 mg/kg,ip with long term administration of furosemide measured after 3 hrs; format: functional
Aquaporin-1 = biological target: T2, Aquaporin-1 (Homo sapiens, UniProt P29972); assay: Agonist activity at human AQP1 water channel expressed in Xenopus laevis oocytes assessed as inhibition of AQP1-mediated osmotic swelling; format: cell-based, Oocyte
T2 sequence (P29972 whole entry): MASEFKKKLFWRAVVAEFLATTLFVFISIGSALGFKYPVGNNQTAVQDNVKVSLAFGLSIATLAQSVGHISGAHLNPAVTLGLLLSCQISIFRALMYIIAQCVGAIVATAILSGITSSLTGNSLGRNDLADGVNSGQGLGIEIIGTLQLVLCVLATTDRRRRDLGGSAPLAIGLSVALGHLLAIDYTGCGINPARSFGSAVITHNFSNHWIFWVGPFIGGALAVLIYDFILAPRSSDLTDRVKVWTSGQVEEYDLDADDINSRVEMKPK

Compound	IC50 (Pendrin [1])	IC50 (Pendrin [2])	IC50 (Pendrin [3])	Activity (Mus musculus [4])	Activity (Mus musculus [5])	Activity (Mus musculus [6])	Activity (Mus musculus [7])	EC50 (Aquaporin-1)
Cc1n[nH]c(-c2cc(S(=O)(=O)NC3CCCc4ccccc43)c(C)s2)c1C (stereo not drawn)	9 µM	5 µM	10 µM	30%	30%	60%	60%	
COC(=O)c1cc(S(=O)(=O)NCc2ccccc2)c(Cl)cc1NCc1ccco1								3.3 µM
